Measurements published in patent publication US6933318B1, “Topical organic ectoparasiticidal formulations” (Eli Lilly and Company, priority 1999, dated 2005).
“Also recorded” adds a separate entry of the source.

Test: Wetting test of solvent systems on tanned rabbit pelt
Format: physicochemical
Conditions: about 1 mL solvent without active ingredient, dropwise, pelt at about 45°
Experimental: To determine organic solvents that are useful spreading agents, solvent systems that are capable of solubilizing at least 1% spinosad by weight percent were screened for hair wetting by applying about 1 mL of the solvent system (solvents were screened without active ingredient), dropwise, to a tanned rabbit pelt that was at an angle of about 45°. […]

Q: For `CCCCCCCC(=O)O` [octanoic acid], which “Ability to wet rabbit hair” value is on record?
A: Wet Well

Q: Which “Ability to wet rabbit hair” value does the source give for `COC(C)COC(C)CO` (stereo not shown) [dipropylene glycol methyl ether] here?
A: wet the hair very well; also recorded: Wet Well

Q: For `CCCCCCCC/C=C\CCCCCCCC(=O)OC` [methyl oleate], which “Ability to wet rabbit hair” value is on record?
A: Wet Well

Q: Which “Ability to wet rabbit hair” value does the source give for `CCCCCCCCCCCC(=O)OC` [methyl laurate] here?
A: Wet Well

Q: For `CC(O)CO` (stereo not shown) [propylene glycol], which “Ability to wet rabbit hair” value is on record?
A: Did Not Wet

Q: For `C=C(C)[C@H]1CC=C(C)CC1` [limonene], which “Ability to wet rabbit hair” value is on record?
A: Wet Well

Q: With `CCCCOC(=O)C(C)O` (stereo not shown) [butyl lactate] as the molecule, how does the “Ability to wet rabbit hair” value read?
A: Wet Well

Q: For `CCCCCCCCCCCCCC(=O)OC(C)C` [isopropyl myristate], which “Ability to wet rabbit hair” value is on record?
A: Wet Well

Q: With `CCCCCCCC/C=C\CCCCCCCC(=O)OCC` [ethyl oleate] as the molecule, how does the “Ability to wet rabbit hair” value read?
A: Wet Well

Q: For `CN1CCCC1=O` [N-methyl pyrrolidone], which “Ability to wet rabbit hair” value is on record?
A: Did Not Wet

Q: For `CCCCCCO` [hexanol], which “Ability to wet rabbit hair” value is on record?
A: Wet Well

Q: With `CC(=O)OCC(COC(C)=O)OC(C)=O` [triacetin] as the molecule, how does the “Ability to wet rabbit hair” value read?
A: Did Not Wet

Q: Which “Ability to wet rabbit hair” value does the source give for `CCCCCCCCCC(=O)OC` [methyl caprate] here?
A: Wet Well
